Measurements published in patent US10168342B2, “Lipid probes and uses thereof” (THE SCRIPPS RESEARCH INSTITUTE, priority 2015, dated 2019).
Read-outs that look alike come from different tables or passages of the source.

Columns and labels:
[1] = biological target: T1, AEA-DA lipid probe targets in Neuro2a cells (Mus musculus, UniProt Q9DBH5)
T1 sequence (Q9DBH5 47-358): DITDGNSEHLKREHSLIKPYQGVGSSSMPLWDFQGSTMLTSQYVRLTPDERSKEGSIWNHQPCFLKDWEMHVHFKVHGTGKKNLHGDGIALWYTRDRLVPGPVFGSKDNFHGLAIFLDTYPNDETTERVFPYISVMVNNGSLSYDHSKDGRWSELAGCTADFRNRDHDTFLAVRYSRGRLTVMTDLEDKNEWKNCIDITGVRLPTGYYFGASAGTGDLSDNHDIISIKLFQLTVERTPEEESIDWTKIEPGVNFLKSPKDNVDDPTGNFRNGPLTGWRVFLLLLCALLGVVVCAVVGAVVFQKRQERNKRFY

[2] = biological target: T2, AEA-DA lipid probe targets in Neuro2a cells (Mus musculus, UniProt P10404)
T2 sequence (P10404 33-641): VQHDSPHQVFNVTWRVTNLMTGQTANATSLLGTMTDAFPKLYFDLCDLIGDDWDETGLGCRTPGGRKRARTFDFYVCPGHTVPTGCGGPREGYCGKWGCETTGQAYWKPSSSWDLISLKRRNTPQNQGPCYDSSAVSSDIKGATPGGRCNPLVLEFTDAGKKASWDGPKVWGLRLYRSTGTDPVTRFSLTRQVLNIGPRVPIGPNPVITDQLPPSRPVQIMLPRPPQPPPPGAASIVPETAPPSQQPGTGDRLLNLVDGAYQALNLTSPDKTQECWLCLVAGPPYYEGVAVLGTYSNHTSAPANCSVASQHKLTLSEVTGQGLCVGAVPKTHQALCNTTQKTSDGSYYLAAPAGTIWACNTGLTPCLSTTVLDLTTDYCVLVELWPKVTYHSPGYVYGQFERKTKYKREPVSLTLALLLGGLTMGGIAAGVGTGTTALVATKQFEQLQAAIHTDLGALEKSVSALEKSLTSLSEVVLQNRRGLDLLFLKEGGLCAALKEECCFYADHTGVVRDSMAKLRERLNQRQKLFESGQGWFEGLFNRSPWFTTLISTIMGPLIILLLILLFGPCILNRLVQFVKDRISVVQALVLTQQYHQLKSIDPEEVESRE

[3] = biological target: AEA-DA lipid probe targets in Neuro2a cells (Mus musculus, UniProt Q61584)
Chain of AEA-DA lipid probe targets in Neuro2a cells (Mus musculus, UniProt Q61584) (Q61584 whole entry): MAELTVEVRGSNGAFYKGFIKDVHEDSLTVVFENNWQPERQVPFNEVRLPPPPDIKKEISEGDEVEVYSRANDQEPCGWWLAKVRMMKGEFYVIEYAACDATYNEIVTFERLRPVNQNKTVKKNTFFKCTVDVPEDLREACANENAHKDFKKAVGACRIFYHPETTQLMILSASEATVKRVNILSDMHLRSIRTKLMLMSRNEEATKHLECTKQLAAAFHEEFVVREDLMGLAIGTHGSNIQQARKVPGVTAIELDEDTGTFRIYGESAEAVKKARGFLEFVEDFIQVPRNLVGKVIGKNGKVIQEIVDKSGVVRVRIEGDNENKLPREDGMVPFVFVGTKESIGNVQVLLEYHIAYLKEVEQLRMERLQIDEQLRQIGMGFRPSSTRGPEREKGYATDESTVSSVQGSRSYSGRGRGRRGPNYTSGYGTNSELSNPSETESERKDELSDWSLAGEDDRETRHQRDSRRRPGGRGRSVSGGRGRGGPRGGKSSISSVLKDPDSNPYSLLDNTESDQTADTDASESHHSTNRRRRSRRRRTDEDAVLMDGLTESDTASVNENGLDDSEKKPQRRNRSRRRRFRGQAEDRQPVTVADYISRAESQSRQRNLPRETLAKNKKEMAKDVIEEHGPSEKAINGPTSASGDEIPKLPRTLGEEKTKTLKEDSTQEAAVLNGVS

[4] = biological target: T3, AEA-DA lipid probe targets in Neuro2a cells (Mus musculus, UniProt Q5SW19)
T3 sequence (Q5SW19 1-1315): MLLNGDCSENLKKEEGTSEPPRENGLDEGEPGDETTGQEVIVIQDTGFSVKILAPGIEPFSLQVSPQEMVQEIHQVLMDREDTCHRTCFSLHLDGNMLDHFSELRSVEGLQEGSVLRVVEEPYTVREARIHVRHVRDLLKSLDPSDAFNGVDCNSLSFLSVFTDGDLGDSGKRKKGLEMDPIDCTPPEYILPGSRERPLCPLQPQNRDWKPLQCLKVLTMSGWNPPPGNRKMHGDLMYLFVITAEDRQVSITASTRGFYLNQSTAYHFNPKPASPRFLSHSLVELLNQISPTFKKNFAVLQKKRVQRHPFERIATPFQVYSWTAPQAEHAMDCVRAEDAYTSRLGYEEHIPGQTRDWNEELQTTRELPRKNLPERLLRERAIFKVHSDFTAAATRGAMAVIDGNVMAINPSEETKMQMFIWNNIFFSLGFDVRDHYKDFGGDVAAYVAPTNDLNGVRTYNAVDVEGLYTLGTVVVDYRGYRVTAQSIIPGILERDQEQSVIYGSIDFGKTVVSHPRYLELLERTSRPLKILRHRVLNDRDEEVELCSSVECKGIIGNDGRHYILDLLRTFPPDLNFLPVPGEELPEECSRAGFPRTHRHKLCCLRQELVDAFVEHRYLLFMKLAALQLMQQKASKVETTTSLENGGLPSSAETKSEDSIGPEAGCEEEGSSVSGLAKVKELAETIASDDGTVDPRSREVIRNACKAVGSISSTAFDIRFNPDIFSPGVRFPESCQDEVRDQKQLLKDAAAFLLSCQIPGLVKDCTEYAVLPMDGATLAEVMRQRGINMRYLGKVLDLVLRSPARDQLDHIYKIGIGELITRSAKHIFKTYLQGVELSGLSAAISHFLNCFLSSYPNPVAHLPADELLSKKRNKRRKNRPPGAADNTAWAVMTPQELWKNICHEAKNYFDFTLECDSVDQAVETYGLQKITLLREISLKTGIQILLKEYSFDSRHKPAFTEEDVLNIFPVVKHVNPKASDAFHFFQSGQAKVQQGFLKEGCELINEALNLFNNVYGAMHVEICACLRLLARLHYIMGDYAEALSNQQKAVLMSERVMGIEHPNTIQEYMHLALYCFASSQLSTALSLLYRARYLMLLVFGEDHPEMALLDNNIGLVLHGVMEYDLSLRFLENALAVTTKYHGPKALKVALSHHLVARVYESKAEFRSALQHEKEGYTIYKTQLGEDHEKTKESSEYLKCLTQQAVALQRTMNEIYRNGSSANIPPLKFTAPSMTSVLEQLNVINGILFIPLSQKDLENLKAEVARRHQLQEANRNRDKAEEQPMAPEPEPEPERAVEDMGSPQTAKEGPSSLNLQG

[5] = biological target: T4, AEA-DA lipid probe targets in Neuro2a cells (Mus musculus, UniProt O88531)
T4 sequence (O88531 28-306): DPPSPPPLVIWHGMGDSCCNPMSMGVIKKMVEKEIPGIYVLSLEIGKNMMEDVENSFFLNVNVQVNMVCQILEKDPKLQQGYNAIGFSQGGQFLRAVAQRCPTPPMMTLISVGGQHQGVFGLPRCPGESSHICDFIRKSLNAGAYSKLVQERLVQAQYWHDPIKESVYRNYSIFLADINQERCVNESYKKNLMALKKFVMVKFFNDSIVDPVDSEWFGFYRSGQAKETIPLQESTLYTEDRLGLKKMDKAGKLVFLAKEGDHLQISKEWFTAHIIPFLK

| SMILES | SILAC ratio Lman2 ([1]; competitor 25 μM) | SILAC ratio MLV-related ([2]; competitor 25 μM) | SILAC ratio Fxr1 ([3]; competitor 25 μM) | SILAC ratio Kiaa0664 ([4]; competitor 25 μM) | SILAC ratio Ppt1 ([5]; competitor 25 μM) | further results |
| --- | --- | --- | --- | --- | --- | --- |
| O=C(/C=C/c1cccnc1)NCCCCC1CCN(C(=O)c2ccccc2)CC1 [FK-866, reference compound] | 1.1 | 1.1 | 1.4 | 1.2 | 0.8 |  |
| CCCCC/C=C\C/C=C\C/C=C\C/C=C\CCCC(=O)NCCO [AEA, anandamide, reference compound] |  |  |  |  |  | SILAC ratio Lman2 ([1]; competitor 200 μM): 1.5; SILAC ratio MLV-related ([2]; competitor 200 μM): 1.4; SILAC ratio Fxr1 ([3]; competitor 200 μM): 1.1; SILAC ratio Ppt1 ([5]; competitor 200 μM): 1.1 |
| CN1CCN(C(=O)c2c(-c3ccccc3)c3cc([N+](=O)[O-])ccc3n2C)CC1 [KML110, (1-Methyl-5-nitro-3-phenyl-1H-indol-2-yl)(4-methylpiperazin-1-yl)methanone] | 1.3 | 1.2 | 1.5 | 2.1 | 1.2 |  |
| C=CCN(C)CCCCCCOc1ccc(C(=O)c2ccc(Br)cc2)c(F)c1 [Ro 48-8071, reference compound] | 0.7 | 1.0 | 0.9 | 1.0 | 1.6 |  |
| CN1CCN(C(=O)c2[nH]c3ccc([N+](=O)[O-])cc3c2-c2ccccc2)CC1 [MJN228, (4-Methylpiperazin-1-yl)(5-nitro-3-phenyl-1H-indol-2-yl)methanone] | 1.1 | 1.8 | 1.3 | 2.2 | 1.5 | SILAC ratio Lman2 ([1]; competitor 10 μM): 1.2; SILAC ratio Lman2 ([1]; competitor 50 μM): 2.1; SILAC ratio Lman2 ([1]; competitor 100 μM): 1.5; SILAC ratio MLV-related ([2]; competitor 10 μM): 1.8; SILAC ratio MLV-related ([2]; competitor 50 μM): 1.7; SILAC ratio MLV-related ([2]; competitor 100 μM): 2.5; SILAC ratio Fxr1 ([3]; competitor 10 μM): 1.2; SILAC ratio Fxr1 ([3]; competitor 50 μM): 1.1; SILAC ratio Fxr1 ([3]; competitor 100 μM): 1.1; SILAC ratio Kiaa0664 ([4]; competitor 10 μM): 1.5; SILAC ratio Kiaa0664 ([4]; competitor 50 μM): 1.0; SILAC ratio Kiaa0664 ([4]; competitor 100 μM): 1.9; SILAC ratio Ppt1 ([5]; competitor 10 μM): 1.5; SILAC ratio Ppt1 ([5]; competitor 50 μM): 2.1; SILAC ratio Ppt1 ([5]; competitor 100 μM): 4.3 |
